What was measured:
Test in all cases: relative viability (nuclei count vs DMSO), 5 days (fraction); higher = more cells survive
MK-8033 + OSI-027 = compound: Cn1cc(-c2cnc3ccc4ccc(CS(=O)(=O)NCc5ccccn5)cc4c(=O)c3c2)cn1 [MK-8033] + COc1cccc2cc(-c3nc([C@H]4CC[C@H](C(=O)O)CC4)n4ncnc(N)c34)[nH]c12 [OSI-027] (partner 0.5 µM)
How it was run: (§1)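 Five library-drug doses in √10 steps were combined with a fixed anchor-drug dose, or a single drug was given alone, by pin tool to lung cancer cell lines in 1536-well plates the day after seeding. Nuclei were stained and counted after 5 days. Relative viability is the nuclei count in treated wells over that in vehicle wells, taken as the median of duplicate plates.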

MK-8033 + Pemetrexed = compound: Cn1cc(-c2cnc3ccc4ccc(CS(=O)(=O)NCc5ccccn5)cc4c(=O)c3c2)cn1 [MK-8033] + Nc1nc2[nH]cc(CCc3ccc(C(=O)N[C@@H](CCC(=O)O)C(=O)O)cc3)c2c(=O)[nH]1 [Pemetrexed] (partner 0.2 µM)
How it was run: as §1

MK-8033 + Luminespib = compound: Cn1cc(-c2cnc3ccc4ccc(CS(=O)(=O)NCc5ccccn5)cc4c(=O)c3c2)cn1 [MK-8033] + CCNC(=O)c1noc(-c2cc(C(C)C)c(O)cc2O)c1-c1ccc(CN2CCOCC2)cc1 [Luminespib] (partner 0.01 µM)
How it was run: as §1

Irinotecan + Linsitinib = compound: CCc1c2c(nc3ccc(OC(=O)N4CCC(N5CCCCC5)CC4)cc13)-c1cc3c(c(=O)n1C2)COC(=O)[C@]3(O)CC [Irinotecan] + C[C@]1(O)C[C@@H](c2nc(-c3ccc4ccc(-c5ccccc5)nc4c3)c3c(N)nccn32)C1 [Linsitinib] (partner 1 µM)
How it was run: as §1

Row | Cell Line | relative viability (MK-8033 + OSI-027; first compound 0.02 µM) | relative viability (MK-8033 + OSI-027; first compound 0.06325 µM) | relative viability (MK-8033 + OSI-027; first compound 0.2 µM) | relative viability (MK-8033 + OSI-027; first compound 0.6325 µM) | relative viability (MK-8033 + OSI-027; first compound 2 µM) | relative viability (MK-8033 + Pemetrexed; first compound 0.02 µM) | relative viability (MK-8033 + Pemetrexed; first compound 0.06325 µM) | relative viability (MK-8033 + Pemetrexed; first compound 0.2 µM) | relative viability (MK-8033 + Pemetrexed; first compound 0.6325 µM) | relative viability (MK-8033 + Pemetrexed; first compound 2 µM) | relative viability (MK-8033 + Luminespib; first compound 0.02 µM) | relative viability (MK-8033 + Luminespib; first compound 0.06325 µM) | relative viability (MK-8033 + Luminespib; first compound 0.2 µM) | relative viability (MK-8033 + Luminespib; first compound 0.6325 µM) | relative viability (MK-8033 + Luminespib; first compound 2 µM) | relative viability (Irinotecan + Linsitinib; first compound 2 µM) | relative viability (Irinotecan + Linsitinib; first compound 6.325 µM) | relative viability (Irinotecan + Linsitinib; first compound 20 µM) | relative viability (Irinotecan + Linsitinib; first compound 0.6325 µM)
1 | 201T | 0.767 | 0.703 | 0.683 | 0.675 | 0.817 | 0.306 | 0.348 | 0.301 | 0.291 | 0.312 | 0.986 | 1.07 | 0.957 | 1.06 | 1.03 | 0.85 | 0.445 | 0.397 | 
2 | A549 |  |  |  |  |  |  |  |  |  |  |  |  |  |  |  | 0.636 | 0.211 | 0.0965 | 0.374
3 | A-427 | 0.539 | 0.463 | 0.431 | 0.527 | 0.4 | 0.936 | 0.976 | 0.941 | 0.946 | 1.05 | 0.85 | 0.85 | 0.83 | 0.88 | 0.91 | 0.231 | 0.221 | 0.198 | 
4 | ABC-1 | 0.417 | 0.339 | 0.415 | 0.457 | 0.506 |  |  |  |  |  | 0.544 | 0.545 |  | 0.602 | 0.473 | 0.676 | 0.344 | 0.238 | 
5 | BEN | 0.305 | 0.298 | 0.295 | 0.284 | 0.244 | 0.924 | 0.694 | 0.752 | 0.765 | 0.758 | 0.382 | 0.419 | 0.331 | 0.295 | 0.455 | 0.7 | 0.3 | 0.378 | 1.06
6 | CAL-12T | 0.551 | 0.655 | 0.519 | 0.695 | 0.536 | 1.26 | 1.18 | 1.12 | 1.35 | 1.18 | 0.263 | 0.305 | 0.518 | 0.319 | 0.53 | 0.77 | 0.366 | 0.264 | 0.589
7 | COR-L23 | 0.814 | 0.743 | 0.701 | 0.749 | 0.736 | 0.2 | 0.197 | 0.219 | 0.212 | 0.197 | 0.696 | 0.595 | 0.722 | 0.661 | 0.606 | 0.284 | 0.203 | 0.123 | 0.392
8 | COR-L 105 | 0.687 | 0.429 | 0.635 | 0.638 | 0.671 | 1.22 | 0.744 | 1.14 | 1.12 | 1.05 | 0.552 | 0.79 | 0.774 | 0.616 | 0.677 | 0.898 | 0.637 | 0.314 | 0.883
9 | Calu-6 |  |  |  |  |  |  |  |  |  |  |  |  |  |  |  | 0.523 | 0.2 | 0.132 | 0.714
10 | ChaGo-K-1 | 0.51 | 0.536 | 0.528 | 0.552 | 0.511 | 0.251 | 0.223 | 0.253 | 0.267 | 0.262 | 0.679 | 0.696 | 0.562 | 0.636 | 0.516 |  |  |  | 
11 | EBC-1 |  |  |  |  |  |  |  |  |  |  |  |  |  |  |  | 0.405 | 0.211 | 0.177 | 0.675
12 | EKVX | 0.731 | 0.665 | 0.637 | 0.642 | 0.723 | 0.373 | 0.344 | 0.337 | 0.34 | 0.424 | 0.888 | 0.905 | 0.814 | 0.889 | 0.842 | 0.906 | 0.377 | 0.238 | 1.1
13 | EMC-BAC-2 | 0.384 | 0.408 | 0.395 | 0.375 | 0.386 | 0.453 | 0.406 | 0.46 | 0.419 | 0.439 | 1.2 | 1.07 | 1.12 | 1.16 | 1.12 | 0.267 | 0.2 | 0.242 | 0.56
14 | EPLC-272H | 0.271 | 0.291 | 0.299 | 0.306 | 0.276 | 0.359 | 0.357 | 0.345 | 0.376 | 0.313 | 0.214 | 0.339 | 0.282 | 0.218 | 0.475 | 0.241 | 0.202 | 0.287 | 0.943
15 | H3255 | 0.621 | 0.551 | 0.597 | 0.491 | 0.639 | 0.56 | 0.49 | 0.571 | 0.582 | 0.565 | 0.864 | 0.737 | 0.834 | 0.896 | 0.916 | 0.439 | 0.26 | 0.298 | 0.803
16 | HARA | 0.569 | 0.265 | 0.487 | 0.429 | 0.418 | 0.289 | 0.212 | 0.227 | 0.264 | 0.229 | 0.675 | 0.621 | 0.681 | 1.03 | 0.557 | 0.152 | 0.148 | 0.154 | 0.623
17 | HCC-15 | 0.692 | 0.588 | 0.64 | 0.648 | 0.656 | 0.222 | 0.221 | 0.236 | 0.237 | 0.194 | 0.281 | 0.397 | 0.263 | 0.253 | 0.307 | 0.204 | 0.152 | 0.158 | 0.458
18 | HCC-44 | 0.472 | 0.508 | 0.465 | 0.605 | 0.522 | 0.672 | 0.695 | 0.681 | 0.691 | 0.603 | 1.06 | 1.02 | 1.01 | 1.3 | 1.05 | 0.305 | 0.168 | 0.249 | 0.677
19 | HCC-78 | 0.352 |  | 0.329 | 0.34 | 0.398 | 0.936 | 0.923 | 0.928 | 0.587 | 0.851 |  |  |  |  |  | 0.418 | 0.204 | 0.184 | 0.577
20 | HCC-366 | 1.1 | 0.85 | 0.838 | 0.945 | 0.791 | 0.151 | 0.222 | 0.141 | 0.196 | 0.35 |  |  |  |  |  | 0.152 | 0.0502 | 0.0674 | 0.443

Source: the supplement of paper PMC10307832
